Patent publication US11090310B2, “Methods and compositions for treating hypertriglyceridemia” (THE REGENTS OF THE UNIVERSITY OF CALIFORNIA, priority 2016, dated 2021)

Tests used:
[1] = Plasma triglyceride levels of patients with GPIHBP1 autoantibodies under drug treatment (case follow-up); assay type: in vivo, human; conditions: for effect of treatment on plasma triglycerides / hypertriglyceridemia (in words): case reports of single patients (111, 157, 164)
autoantibodies = conditions: in patients, literature reports; cited from earlier work
V5-tagged human LPL = biological target: T1, V5-tagged human LPL (Homo sapiens, UniProt P06858); test: Cell-based LPL-GPIHBP1 binding assay of GPIHBP1 variants; conditions: transfected CHO pgsA-745 cells or HUVEC
T1 construct: made in house
T1 sequence (P06858 28-475): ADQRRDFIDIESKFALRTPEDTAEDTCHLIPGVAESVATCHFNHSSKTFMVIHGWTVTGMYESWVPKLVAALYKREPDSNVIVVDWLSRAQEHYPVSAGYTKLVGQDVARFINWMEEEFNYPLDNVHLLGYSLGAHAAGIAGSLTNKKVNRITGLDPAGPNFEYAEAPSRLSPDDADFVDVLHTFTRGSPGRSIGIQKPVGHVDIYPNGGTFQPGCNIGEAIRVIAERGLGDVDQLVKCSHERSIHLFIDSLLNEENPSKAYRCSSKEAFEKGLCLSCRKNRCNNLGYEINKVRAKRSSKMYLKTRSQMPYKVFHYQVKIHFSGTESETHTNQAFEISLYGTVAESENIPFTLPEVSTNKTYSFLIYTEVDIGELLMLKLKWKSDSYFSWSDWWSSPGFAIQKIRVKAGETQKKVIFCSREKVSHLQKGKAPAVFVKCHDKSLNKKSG
Experimental: Expression vectors for S-protein-tagged wild-type (wt) GPIHBP1, GPIHBP1-G175R, and GPIHBP1-W109S (or the empty vector) were transfected into CHO pgsA-745 cells or human umbilical vein endothelial cells (HUVEC). After 1 day, the cells were washed three times in PBS and incubated for 1 h at 4° C. with V5-tagged human LPL (900 ng/well). Then the cells were washed six times in PBS, and cell lysates were collected in RIPA buffer (Sigma) containing a protease inhibitor cocktail (Roche). Proteins were separated by SDS-PAGE, and western blots were performed under reducing conditions with a goat antibody against the S-protein tag (Abcam, 5 μg/ml), followed by an IRdye680-donkey anti-goat IgG (LI-COR, 1:2000) and an IRdye800-V5 antibody (1:500).

COc1c(C)c2c(c(O)c1C/C=C(\C)CCC(=O)OCCN1CCOCC1)C(=O)OC2 [Mycophenolate mofetil]
effect of treatment on plasma triglycerides / hypertriglyceridemia (in words) [1]: failed to lower the plasma triglyceride levels | Follow-up (mg/dl): follow-up plasma triglyceride levels after treatment ([1]; single patients: 101 (prednisolone 10 mg/day, salazosulfapyridine 1000 mg/day), 111, 164 (mycophenolate mofetil 750 + 500 mg/day, hydroxychloroquine 100 mg/day)): 2,573-4,085 mg/dl

Belimumab
reduction of autoantibodies (autoantibodies): reduce autoantibodies

Rituximab
reduction of autoantibodies (autoantibodies): reducing the production of autoantibodies in patients

n−3 fatty acids
effect of treatment on plasma triglycerides / hypertriglyceridemia (in words) [1]: resistant

B1: GPIHBP1-G175R: GPIHBP1 with G175R missense substitution in the carboxyl-terminal hydrophobic domain (protein)
chain: QTQQEEEEEDEDHGPDDYDEEDEDEVEEEETNRLPGGRSRVLLRCYTCKSLPRDERCNLTQNCSHGQTCTTLIAHGNTESGLLTTHSTWCTDSCQPITKTVEGTQVTMTCCQSSLCNVPPWQSSRVQDPTG
modifications: left off: small tags and cut ends
notes: GPIHBP1 with G175R missense substitution in the carboxyl-terminal hydrophobic domain
LPL binding by GPIHBP1 variant expressed on cells (V5-tagged human LPL): binds LPL avidly

B2: GPIHBP1-W109S: mutant GPIHBP1 which lacks the ability to bind LPL, used as control (protein)
chain: QTQQEEEEEDEDHGPDDYDEEDEDEVEEEETNRLPGGRSRVLLRCYTCKSLPRDERCNLTQNCSHGQTCTTLIAHGNTESGLLTTHSTSCTDSCQPITKTVEGTQVTMTCCQSSLCNVPPWQSSRVQDPTG
modifications: left off: small tags and cut ends
LPL binding by GPIHBP1 variant expressed on cells (V5-tagged human LPL): lacks the ability to bind LPL
